Reference: PubChem BioAssay (NCI)
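Exposure lasted 48 hours, with cells grown in 96-well plates and compounds tested at five concentrations. GI50 = concentration required for 50% inhibition of growth. At the TGI there is no net growth.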

The compounds below were run on SNB-75 CNS (assay: NCI-60 cell line screen, 48 h).
With `Cc1ccc(NC(=O)C(=O)C(C(=O)c2ccc3ccccc3c2)C2OC(=O)c3ccccc32)cc1C` (stereo not given) the TGI was 7.34 µM. Compound `CCC[CH2][Sn]1([CH2]CCC)[O]N=C(c2ccccc2)C(c2ccccc2)[O]1` (stereo not given) has a GI50 of 1.6 µM and a TGI of 4.1 µM. For `O=S1(=O)C[C@H](O)[C@H](O)CS1`, the TGI was greater than 100 µM. `N#Cc1nc(Nc2cccc3ccccc23)sc1N` showed a TGI greater than 100 µM. `COc1cc([C@H]2Oc3cc(O)c4c(=O)cc(-c5ccccc5)oc4c3O[C@@H]2CO)ccc1O` gave a TGI of 39 µM. For `CCN(CC)CC1CCCCCCCCCCC1=O` (stereo not given), the TGI was greater than 100 µM. `O=C1C(Cl)N(c2ccc(Cl)cc2)C1c1c[nH]c2ccccc12` (stereo not given) gave a TGI greater than 100 µM.

The compounds below were run on DMS 114 small cell lung (assay: NCI-60 cell line screen, 48 h).
Work on `Cc1ccc(NC(=O)C(=O)C(C(=O)c2ccc3ccccc3c2)C2OC(=O)c3ccccc32)cc1C` (stereo not given) yielded a TGI of 41.3 µM. `CCC[CH2][Sn]1([CH2]CCC)[O]N=C(c2ccccc2)C(c2ccccc2)[O]1` (stereo not given) showed a GI50 of 0.965 µM and a TGI of 2.18 µM. With `O=S1(=O)C[C@H](O)[C@H](O)CS1` the TGI was greater than 100 µM. Work on `COc1cc([C@H]2Oc3cc(O)c4c(=O)cc(-c5ccccc5)oc4c3O[C@@H]2CO)ccc1O` yielded a TGI greater than 100 µM. `CCN(CC)CC1CCCCCCCCCCC1=O` (stereo not given) gave a TGI greater than 100 µM. `O=C1C(Cl)N(c2ccc(Cl)cc2)C1c1c[nH]c2ccccc12` (stereo not given) gave a TGI of 45.2 µM.

The compounds below were run on K-562 leukemia (assay: NCI-60 cell line screen, 48 h).
`Cc1ccc(NC(=O)C(=O)C(C(=O)c2ccc3ccccc3c2)C2OC(=O)c3ccccc32)cc1C` (stereo not given) showed a TGI of 59.7 µM. Compound `CCC[CH2][Sn]1([CH2]CCC)[O]N=C(c2ccccc2)C(c2ccccc2)[O]1` (stereo not given) has a GI50 of 0.387 µM and a TGI of 2.38 µM. Compound `O=S1(=O)C[C@H](O)[C@H](O)CS1` has a TGI greater than 100 µM. Work on `N#Cc1nc(Nc2cccc3ccccc23)sc1N` yielded a TGI greater than 100 µM. `COc1cc([C@H]2Oc3cc(O)c4c(=O)cc(-c5ccccc5)oc4c3O[C@@H]2CO)ccc1O` gave a TGI greater than 100 µM. `CCN(CC)CC1CCCCCCCCCCC1=O` (stereo not given) gave a TGI greater than 100 µM. `O=C1C(Cl)N(c2ccc(Cl)cc2)C1c1c[nH]c2ccccc12` (stereo not given) was tested, and the TGI was 73.3 µM.

These compounds were tested on SK-OV-3 ovarian (assay: NCI-60 cell line screen, 48 h).
`Cc1ccc(NC(=O)C(=O)C(C(=O)c2ccc3ccccc3c2)C2OC(=O)c3ccccc32)cc1C` (stereo not given) showed a TGI greater than 100 µM. With `CCC[CH2][Sn]1([CH2]CCC)[O]N=C(c2ccccc2)C(c2ccccc2)[O]1` (stereo not given) the GI50 was 3.84 µM and the TGI was 12.7 µM. `O=S1(=O)C[C@H](O)[C@H](O)CS1` showed a TGI greater than 100 µM. `N#Cc1nc(Nc2cccc3ccccc23)sc1N` was tested, and the TGI was greater than 100 µM. In the case of `COc1cc([C@H]2Oc3cc(O)c4c(=O)cc(-c5ccccc5)oc4c3O[C@@H]2CO)ccc1O`, the TGI is reported as 70.3 µM.

Each compound was assayed on SF-539 CNS (assay: NCI-60 cell line screen, 48 h).
`Cc1ccc(NC(=O)C(=O)C(C(=O)c2ccc3ccccc3c2)C2OC(=O)c3ccccc32)cc1C` (stereo not given) showed a TGI of 11.4 µM. `CCC[CH2][Sn]1([CH2]CCC)[O]N=C(c2ccccc2)C(c2ccccc2)[O]1` (stereo not given) gave a GI50 of 1.79 µM and a TGI of 3.39 µM. `O=S1(=O)C[C@H](O)[C@H](O)CS1` showed a TGI greater than 100 µM. `N#Cc1nc(Nc2cccc3ccccc23)sc1N` gave a TGI of 76.6 µM. `COc1cc([C@H]2Oc3cc(O)c4c(=O)cc(-c5ccccc5)oc4c3O[C@@H]2CO)ccc1O` showed a TGI of 56.6 µM. `O=C1C(Cl)N(c2ccc(Cl)cc2)C1c1c[nH]c2ccccc12` (stereo not given) showed a TGI of 37.2 µM.

These compounds were tested on HCC-2998 colon (assay: NCI-60 cell line screen, 48 h).
`Cc1ccc(NC(=O)C(=O)C(C(=O)c2ccc3ccccc3c2)C2OC(=O)c3ccccc32)cc1C` (stereo not given) showed a TGI of 18.9 µM. `CCC[CH2][Sn]1([CH2]CCC)[O]N=C(c2ccccc2)C(c2ccccc2)[O]1` (stereo not given) was tested, and the GI50 was 2.18 µM and the TGI was 4.47 µM. For `O=S1(=O)C[C@H](O)[C@H](O)CS1`, the TGI was greater than 100 µM. For `N#Cc1nc(Nc2cccc3ccccc23)sc1N`, the TGI was 41.2 µM. `COc1cc([C@H]2Oc3cc(O)c4c(=O)cc(-c5ccccc5)oc4c3O[C@@H]2CO)ccc1O` was tested, and the TGI was greater than 100 µM. `CCN(CC)CC1CCCCCCCCCCC1=O` (stereo not given) was tested, and the TGI was greater than 100 µM.

What follows are compounds tested on TK-10 renal (assay: NCI-60 cell line screen, 48 h).
With `Cc1ccc(NC(=O)C(=O)C(C(=O)c2ccc3ccccc3c2)C2OC(=O)c3ccccc32)cc1C` (stereo not given) the TGI was 94.6 µM. Compound `CCC[CH2][Sn]1([CH2]CCC)[O]N=C(c2ccccc2)C(c2ccccc2)[O]1` (stereo not given) has a GI50 of 1.9 µM and a TGI of 4.09 µM. `O=S1(=O)C[C@H](O)[C@H](O)CS1` showed a TGI greater than 100 µM. `N#Cc1nc(Nc2cccc3ccccc23)sc1N` showed a TGI of 76.9 µM. Compound `CCN(CC)CC1CCCCCCCCCCC1=O` (stereo not given) has a TGI greater than 100 µM. Compound `O=C1C(Cl)N(c2ccc(Cl)cc2)C1c1c[nH]c2ccccc12` (stereo not given) has a TGI of 34.8 µM.
